Test results as given in patent US11801249B1, “Broad-spectrum antitrypanosomal compounds” (KING FAISAL UNIVERSITY, priority 2023, dated 2023).
Converted amounts (≈) assume the structure as drawn.

How the values were obtained:
Assay in all cases: Antitrypanosomal assay (ATP-based luciferase viability)
Format in all cases: cell-based
[1] = test system: T. b. brucei (Tbb) GuTat3.1; settings: Trypanosoma brucei, TbbGUTat3.1, mean ± SD; for IC50: 72 h, three days; for inhibition at 0.25 µg/mL: 0.25 μg/ml; for inhibition at 0.25 µg/mL / inhibition at 25 µg/mL: read-out: Inhibition rate; for inhibition at 25 µg/mL: 25 μg/ml
Source text: (§1) Six trypanosome species namely T. b. brucei (Tbb) GuTat3.1, T. b. rhodesiense (Tbr) IL1501, T. b. gambiense (Tbg) IL1922, T. evansi (Tev) Tansui, T. equiperdum (Teq) IVM-t1 and T. congolense (Tc) IL3000 were cultivated using HMI-9 medium and used in the study. Following the procedures reported in Suganuma et al. (2014): “Establishment of ATP-based luciferase viability assay in 96-well plate for Trypanosoma congolense”, J Vet Med Sci 76, 1437-41, the trypanocidal activity of the two compounds discussed herein was assessed at 25 μg/ml or […]. […] The IC50 of the compounds against six trypanosome species was determined using serial dilution in a 96-well plate (Optical bottom plate, ThermoFisher SCIENTIFIC, MA, USA). After three days, 25 μL of CellTiter-GIo Luminescent cell viability reagent (Promega Corporation, WI, USA) was aliquoted into each well and luminosity was measured with a GloMax plate reader (Promega Corporation, WI, USA).
(§2) At first, the compounds were assayed at high and low concentrations of […], respectively (Table 3).
(§3) Given the promising initial antitrypanosomal action of the compounds, the IC50 was measured in the presence of several concentrations of the compound.

[2] = test system: T. b. gambiense (Tbg) IL1922; settings: Trypanosoma brucei, mean ± SD; for IC50: 72 h, TbgIL1922, three days; for inhibition at 0.25 µg/mL: TbgIL1922, 0.25 μg/ml; for inhibition at 0.25 µg/mL / inhibition at 25 µg/mL: read-out: Inhibition rate; for inhibition at 25 µg/mL: TbgIL1922, 25 μg/ml
Source text: as §1, §2, §3

[3] = test system: T. b. rhodesiense (Tbr) IL1501; settings: Trypanosoma brucei, mean ± SD; for IC50: 72 h, TbrIL1501, three days; for inhibition at 0.25 µg/mL: TbrIL1501, 0.25 μg/ml; for inhibition at 0.25 µg/mL / inhibition at 25 µg/mL: read-out: Inhibition rate; for inhibition at 25 µg/mL: TbrIL1501, 25 μg/ml
Source text: as §1, §2, §3

[4] = test system: T. congolense (Tc) IL3000; settings: Trypanosoma congolense, TcIL3000, mean ± SD; for IC50: 72 h, three days; for inhibition at 0.25 µg/mL: 0.25 μg/ml; for inhibition at 0.25 µg/mL / inhibition at 25 µg/mL: read-out: Inhibition rate; for inhibition at 25 µg/mL: 25 μg/ml
Source text: as §1, §2, §3

[5] = test system: T. equiperdum (Teq) IVM-t1; settings: Trypanosoma equiperdum, mean ± SD; for inhibition at 0.25 µg/mL: 0.25 μg/ml; for inhibition at 0.25 µg/mL / inhibition at 25 µg/mL: read-out: Inhibition rate; for inhibition at 25 µg/mL: 25 μg/ml; for IC50: 72 h, three days
Source text: as §1, §2, §3

T. evansi (Tev) Tansui = settings: Trypanosoma evansi, mean ± SD; for inhibition at 0.25 µg/mL: 0.25 μg/ml; for inhibition at 0.25 µg/mL / inhibition at 25 µg/mL: read-out: Inhibition rate; for inhibition at 25 µg/mL: 25 μg/ml; for IC50: 72 h, three days
Source text: as §1, §2, §3

| IC50 [4] | IC50 [5] | IC50 (T. evansi (Tev) Tansui) | Structure (SMILES) | IC50 [1] | inhibition at 0.25 µg/mL [1] | inhibition at 25 µg/mL [1] | IC50 [2] | inhibition at 0.25 µg/mL [2] | inhibition at 25 µg/mL [2] | IC50 [3] | inhibition at 0.25 µg/mL [3] | inhibition at 25 µg/mL [3] | inhibition at 0.25 µg/mL [4] | inhibition at 25 µg/mL [4] | inhibition at 0.25 µg/mL [5] | inhibition at 25 µg/mL [5] | inhibition at 0.25 µg/mL (T. evansi (Tev) Tansui) | inhibition at 25 µg/mL (T. evansi (Tev) Tansui) |
| --- | --- | --- | --- | --- | --- | --- | --- | --- | --- | --- | --- | --- | --- | --- | --- | --- | --- | --- |
| 2.65 ± 0.47 µg/mL (≈ 7.31 µM) | 10.3 ± 0.36 µg/mL (≈ 28.4 µM) | 13.3 ± 3.36 µg/mL (≈ 36.8 µM) | Fc1ccc(-c2cn[nH]c2C2CCCN(c3ncnc4[nH]ccc34)C2)cc1 (stereo not drawn) [Compound 1, 4-{3-[4-(4-fluorophenyl)-1H-pyrazol-5-yl]piperidin-1-yl}-7H-pyrrolo[2,3-d]pyrimidine] | 3.53 ± 0.67 µg/mL (≈ 9.74 µM) | 13.2 ± 4.07% | 99.38 ± 0.02% | 3.51 ± 0.9 µg/mL (≈ 9.69 µM) | 2.82 ± 3.98% | 99.01 ± 0.01% | 5.56 ± 0.13 µg/mL (≈ 15.3 µM) | 15.9 ± 11.1% | 99.34 ± 0.01% | 8.85 ± 9.99% | 98.64 ± 0.16% | 4.26 ± 6.01% | 99.22 ± 0.01% | 9.14 ± 6.02% | 99.1 ± 0.46% |
| 2.77 ± 0.57 µg/mL (≈ 7.62 µM) | 9.12 ± 0.8 µg/mL (≈ 25.1 µM) | 9.26 ± 1.2 µg/mL (≈ 25.5 µM) | Fc1ccc(-c2cn[nH]c2C2CCCN(c3ncnc4[nH]cnc34)C2)cc1 (stereo not drawn) [Compound 2, 6-{3-[4-(4-fluorophenyl)-1H-pyrazol-5-yl]piperidin-1-yl}-9H-purine] | 3.66 ± 0.77 µg/mL (≈ 10.1 µM) | 13.9 ± 3.11% | 99.03 ± 0.02% | 3.11 ± 0.88 µg/mL (≈ 8.56 µM) | 1.82 ± 1.45% | 98.21 ± 0.02% | 4.65 ± 0.25 µg/mL (≈ 12.8 µM) | 11.3 ± 6.63% | 98.64 ± 0.02% | 8.09 ± 6.96% | 98.01 ± 0.2% | 5.2 ± 4.11% | 98.62 ± 0.05% | 6.14 ± 7.12% | 98.7 ± 0.04% |
